Measurements as given in patent US20220332708A1 (Cytokinetics, Inc., priority 2021, published 2022).

System: Bovine cardiac myofibrils
Assay: Dose-dependent myofibril ATPase modulation (calcium-buffered, pyruvate kinase and lactate dehydrogenase-coupled ATPase assay at pCa25)
Type: biochemical
Conditions: concentration at which ATPase activity was 1.4-fold higher than the bottom of the dose curve, mean of a minimum of two independent tests
Outline: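 Detergent-skinned bovine cardiac myofibrils (typically 0.25-1.0 mg/ml) in a pyruvate kinase/lactate dehydrogenase-coupled ATPase assay, 1 mM ATP, pH 6.80, free Ca2+ set by EGTA buffer to pCa25. ATP hydrolysis followed by A340; 4-parameter fit, AC1.4 as mean of at least two independent tests.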

Structure (SMILES) | AC1.4
Cc1[nH]c(S(=O)(=O)NC23COc4cc(F)c(Cl)cc4C2C3)cc1C(=O)N1CC(C)(C#N)C1 (stereo not shown) [Compound 31, N-(6-chloro-5-fluoro-1,7b-dihydrocyclopropa[c]chromen-1a(2H)-yl)-4-(3-cyano-3-methylazetidine-1-carbonyl)-5-methyl-1H-pyrrole-2-sulfonamide] | 1.274 µM
Cc1[nH]c(S(=O)(=O)N[C@@H]2CCc3c([nH]c4ccccc34)C2)cc1C(=O)N1CCC1 [Compound 41, (R)-4-(azetidine-1-carbonyl)-5-methyl-N-(2,3,4,9-tetrahydro-1H-carbazol-2-yl)-1H-pyrrole-2-sulfonamide] | 0.2434 µM
Cc1[nH]c(S(=O)(=O)N[C@@H]2CCc3c([nH]c4ccccc34)C2)cc1C(=O)N1CC(F)(F)C1 [Compound 42, (R)-4-(3,3-difluoroazetidine-1-carbonyl)-5-methyl-N-(2,3,4,9-tetrahydro-1H-carbazol-2-yl)-1H-pyrrole-2-sulfonamide] | 0.06395 µM
Cc1[nH]c(S(=O)(=O)N[C@@H]2Cc3cc(F)c(Cl)cc3C2)cc1C(=O)N1CC(OC(F)(F)F)C1 [Compound 94, (R)-N-(5-chloro-6-fluoro-2,3-dihydro-1H-inden-2-yl)-5-methyl-4-(3-(trifluoromethoxy)azetidine-1-carbonyl)-1H-pyrrole-2-sulfonamide] | 0.6847 µM
